Experimental data from US10548877B2, “Aromatic ring compound” (TAKEDA PHARMACEUTICAL COMPANY LIMITED, priority 2016, dated 2020).

Target: T1, human M1 receptor (hCHRM1) (Homo sapiens, UniProt P11229)
T1 construct: expressed in transfected cells
T1 sequence (P11229 1-460): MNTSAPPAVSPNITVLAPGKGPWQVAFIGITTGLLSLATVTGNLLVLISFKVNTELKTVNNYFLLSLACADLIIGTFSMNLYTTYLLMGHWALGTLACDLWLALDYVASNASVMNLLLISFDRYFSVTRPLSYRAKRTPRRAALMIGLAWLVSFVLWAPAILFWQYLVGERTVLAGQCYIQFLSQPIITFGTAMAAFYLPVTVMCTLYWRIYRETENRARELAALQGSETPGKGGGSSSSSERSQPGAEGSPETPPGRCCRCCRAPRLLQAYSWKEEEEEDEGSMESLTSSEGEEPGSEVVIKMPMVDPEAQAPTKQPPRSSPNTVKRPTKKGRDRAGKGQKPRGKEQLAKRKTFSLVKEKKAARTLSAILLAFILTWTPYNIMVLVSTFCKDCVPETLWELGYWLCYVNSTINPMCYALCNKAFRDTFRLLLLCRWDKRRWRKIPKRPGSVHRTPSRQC
Assay: Measurement of M1 receptor positive allosteric modulator (M1PAM) activity (calcium fluorescence, Fluo-4)
Assay type: cell-based
Settings: for EC50: inflection point of concentration-dependent curve, CHO-K1 cells stably expressing hCHRM1, in presence of acetylcholine at EC20 (final 0.8-1.0 nM), read-out: IP value; for activity (%) at 10 μM: test compound 10 μM with acetylcholine at EC20, 100% = 1 μM acetylcholine, 0% = DMSO, CHO-K1 cells expressing hCHRM1
Description: Measurement of M1 Receptor Positive Allosteric Modulator (M1PAM) Activity
The activity of a test compound in the presence of acetylcholine at EC20 concentration (final concentration 0.8-1.0 nM), which affords an action corresponding to about 20% of the maximum activity, was measured as PAM activity. The method is as follows. CHO-K1 cells stably expressing a human M1 receptor (hCHRM1) were plated on a 384-well black clear bottom plate (BD Falcon) at 5,000 cells/well, and cultured in an incubator at 37° C., 5% CO2 for 1 day. The medium in the cell plate was removed, and assay buffer A containing a calcium indicator (Recording medium (DOJINDO LABORATORIES), 0.1% BSA (Wako Pure Chemical Industries, Ltd.), 2.5 μg/mL Fluo-4 AM (DOJINDO LABORATORIES), 0.08% Pluronic F127 (DOJINDO LABORATORIES) and 1.25 mM probenecid (DOJINDO LABORATORIES) were added at 30 μL/well. The cells were left standing in the incubator at 37° C., 5% CO2 for 30 min, and further left standing at room temperature for 30 min. A test compound prepared by diluting with assay buffer B (HBSS (Invitrogen), 20 mM HEPES (Invitrogen), 0.1% BSA) containing 3.2-4.0 nM acetylcholine was added at 10 μL/well, and the fluorescence was measured by FDSS/pcell (Hamamatsu Photonics K.K.) for 1 min every for 1 second. With the definition that the amount of change in the fluorescence on addition of acetylcholine (final concentration 1 μM) is 100% and that on addition of DMSO instead of a test compound is 0%, the activity (%) of the test compound was calculated, and the inflection point in the concentration-dependent curve of the test compound was calculated as IP values.

SMILES | EC50 [nM] | activity (%) at 10 μM [%]
COc1c(C(=O)N[C@H]2CCC[C@@H]2O)cc(Cc2ccc(-n3cccn3)cc2)c(C)c1C (relative stereo) [Example 2, N-(trans-2-hydroxycyclopentyl)-2-methoxy-3,4-dimethyl-5-(4-(1H-pyrazol-1-yl)benzyl)benzamide] | 95 | 96
COc1c(C(=O)N[C@@H]2CCCC[C@H]2O)cc(Cc2ccc(-c3cn(C)nn3)cc2)c(C)c1C (single isomer, unassigned) [Example 11, N-(trans-2-hydroxycyclohexyl)-2-methoxy-3,4-dimethyl-5-(4-(1-methyl-1H-1,2,3-triazol-4-yl)benzyl)benzamide] | 37 | 97
COc1c(C(=O)NCC2CCCO2)cc(Cc2ccc(-c3cn(C)nn3)cc2)c(C)c1C (stereo not drawn) [Example 6, 2-methoxy-3,4-dimethyl-5-(4-(1-methyl-1H-1,2,3-triazol-4-yl)benzyl)-N-(tetrahydrofuran-2-ylmethyl)benzamide] | 23 | 107
Cc1c(Cc2ccc(-c3cn(C)nn3)cc2)cc(C(=O)N[C@H]2CCCC[C@@H]2O)c(OC(C)C)c1C [Example 16, N-((1S,2S)-2-hydroxycyclohexyl)-2-isopropoxy-3,4-dimethyl-5-(4-(1-methyl-1H-1,2,3-triazol-4-yl)benzyl)benzamide] | 30 | 99
Cc1c(Cc2ccc(-c3cn(C)nn3)cc2)cc(C(=O)N[C@H]2CCCC[C@@H]2O)c(OCC2CC2)c1C [Example 17, 2-(cyclopropylmethoxy)-N-((1S,2S)-2-hydroxycyclohexyl)-3,4-dimethyl-5-(4-(1-methyl-1H-1,2,3-triazol-4-yl)benzyl)benzamide] | 40 | 99
Cc1c(Cc2ccc(-c3cn(C)nn3)cc2)cc(C(=O)N[C@H]2CCCC[C@@H]2O)c(OC(F)F)c1C [Example 18, 2-(difluoromethoxy)-N-((1S,2S)-2-hydroxycyclohexyl)-3,4-dimethyl-5-(4-(1-methyl-1H-1,2,3-triazol-4-yl)benzyl)benzamide] | 27 | 97
Cc1c(Cc2ccc(-n3cccn3)nc2)cc(C(=O)N[C@H]2CCC[C@@H]2O)c(F)c1C [Example 19, 2-fluoro-N-((1S,2S)-2-hydroxycyclopentyl)-3,4-dimethyl-5-((6-(1H-pyrazol-1-yl)pyridin-3-yl)methyl)benzamide] | 84 | 93
Cc1c(Cc2ccc(-n3cccn3)nc2)cc(C(=O)N[C@H]2CCCC[C@@H]2O)c(F)c1C [Example 20, 2-fluoro-N-((1S,2S)-2-hydroxycyclohexyl)-3,4-dimethyl-5-((6-(1H-pyrazol-1-yl)pyridin-3-yl)methyl)benzamide] | 31 | 97
COc1c(C(=O)N[C@H]2CCC[C@@H]2O)cc(Cc2ccc(-c3ccn(C)n3)nc2)c(C)c1C [Example 22, N-((1S,2S)-2-hydroxycyclopentyl)-2-methoxy-3,4-dimethyl-5-((6-(1-methyl-1H-pyrazol-3-yl)pyridin-3-yl)methyl)benzamide] | 55 | 95
Cc1c(Cc2ccc(-n3cccn3)cc2)cc(C(=O)N[C@H]2COCC[C@@H]2O)c(F)c1F [Example 25, 1,5-anhydro-2,4-dideoxy-2-((2,3-difluoro-4-methyl-5-(4-(1H-pyrazol-1-yl)benzyl)benzoyl)amino)-L-threo-pentitol] | 33 | 97
COc1c(C(=O)N[C@H]2COCC[C@@H]2O)cc(Cc2ccc(-c3ccn(C)n3)cc2)c(C)c1C [Example 26, 1,5-anhydro-2,4-dideoxy-2-((2-methoxy-3,4-dimethyl-5-(4-(1-methyl-1H-pyrazol-3-yl)benzyl)benzoyl)amino)-L-threo-pentitol] | 31 | 99
COc1c(C(=O)N[C@H]2COCC[C@@H]2O)cc(Cc2ccc(-n3cccn3)cc2)c(C)c1C [Example 27, 1,5-anhydro-2,4-dideoxy-2-((2-methoxy-3,4-dimethyl-5-(4-(1H-pyrazol-1-yl)benzyl)benzoyl)amino)-L-threo-pentitol] | 39 | 100

More lines, now with the values ahead:

EC50 [nM] | activity (%) at 10 μM [%] | SMILES
23 | 108 | COc1c(C(=O)N[C@H]2CCC[C@@H]2O)cc(Cc2ccc(-c3cn(C)nn3)cc2)c(C)c1C (relative stereo) [Example 4, N-(trans-2-hydroxycyclopentyl)-2-methoxy-3,4-dimethyl-5-(4-(1-methyl-1H-1,2,3-triazol-4-yl)benzyl)benzamide]
12 | 105 | COc1c(C(=O)N[C@H]2CCCC[C@@H]2O)cc(Cc2ccc(-c3cn(C)nn3)cc2)c(C)c1C (relative stereo) [Example 5, N-(trans-2-hydroxycyclohexyl)-2-methoxy-3,4-dimethyl-5-(4-(1-methyl-1H-1,2,3-triazol-4-yl)benzyl)benzamide]
4.8 | 106 | COc1c(C(=O)N[C@H]2CCCC[C@@H]2O)cc(Cc2ccc(-c3cn(C)nn3)cc2)c(C)c1C (single isomer, unassigned) [Example 10, N-(trans-2-hydroxycyclohexyl)-2-methoxy-3,4-dimethyl-5-(4-(1-methyl-1H-1,2,3-triazol-4-yl)benzyl)benzamide]
19 | 103 | Cc1c(Cc2ccc(-n3cccn3)cc2)cc(C(=O)N[C@H]2COCC[C@@H]2O)c(F)c1C [Example 12, 2-fluoro-N-((3S,4S)-4-hydroxytetrahydro-2H-pyran-3-yl)-3,4-dimethyl-5-(4-(1H-pyrazol-1-yl)benzyl)benzamide]
9.4 | 102 | COc1c(C(=O)N[C@H]2COCC[C@@H]2O)cc(Cc2ccc(-c3cn(C)nn3)cc2)c(C)c1C [Example 13, N-((3S,4S)-4-hydroxytetrahydro-2H-pyran-3-yl)-2-methoxy-3,4-dimethyl-5-(4-(1-methyl-1H-1,2,3-triazol-4-yl)benzyl)benzamide]
8.6 | 98 | COc1c(C(=O)N[C@H]2CCCC[C@@H]2O)cc(Cc2ccc(-n3ccnn3)cc2)c(C)c1C [Example 14, N-((1S,2S)-2-hydroxycyclohexyl)-2-methoxy-3,4-dimethyl-5-(4-(1H-1,2,3-triazol-1-yl)benzyl)benzamide]
14 | 100 | CCOc1c(C(=O)N[C@H]2CCCC[C@@H]2O)cc(Cc2ccc(-c3cn(C)nn3)cc2)c(C)c1C [Example 15, 2-ethoxy-N-((1S,2S)-2-hydroxycyclohexyl)-3,4-dimethyl-5-(4-(1-methyl-1H-1,2,3-triazol-4-yl)benzyl)benzamide]
10 | 96 | COc1c(C(=O)N[C@H]2CCCC[C@@H]2O)cc(Cc2ccc(-c3ccn(C)n3)nc2)c(C)c1C [Example 21, N-((1S,2S)-2-hydroxycyclohexyl)-2-methoxy-3,4-dimethyl-5-((6-(1-methyl-1H-pyrazol-3-yl)pyridin-3-yl)methyl)benzamide]
2.6 | 95 | COc1c(C(=O)N[C@H]2CCOC[C@@H]2O)cc(Cc2ccc(-c3cn(C)nn3)cc2)c(C)c1C [Example 24, 1,5-anhydro-2,3-dideoxy-3-((2-methoxy-3,4-dimethyl-5-(4-(1-methyl-1H-1,2,3-triazol-4-yl)benzyl)benzoyl)amino)-L-threo-pentitol]
